# Test results reported in patent US11873496B2, “Methods of altering gene expression by perturbing transcription factor multimers that structure regulatory loops” (Whitehead Institute for Biomedical Research, priority 2017, dated 2024).
# What was measured:
# AID-tagged CTCF protein [1] = biological target: T1, AID-tagged CTCF protein (UniProt P93830+Q61164+Q7XVM8); conditions: washout; cited from earlier work
# T1 construct: The AID tag was knocked-in at the endogenous Ctcf gene locus
# AID-tagged CTCF protein [2] = biological target: T2, AID-tagged CTCF protein (UniProt Q61164); conditions: AID tag knocked-in at endogenous Ctcf locus; cited from earlier work
# T2 construct: The AID tag was knocked-in at the endogenous Ctcf gene locus
# T2 sequence (Q61164+P93830 fused): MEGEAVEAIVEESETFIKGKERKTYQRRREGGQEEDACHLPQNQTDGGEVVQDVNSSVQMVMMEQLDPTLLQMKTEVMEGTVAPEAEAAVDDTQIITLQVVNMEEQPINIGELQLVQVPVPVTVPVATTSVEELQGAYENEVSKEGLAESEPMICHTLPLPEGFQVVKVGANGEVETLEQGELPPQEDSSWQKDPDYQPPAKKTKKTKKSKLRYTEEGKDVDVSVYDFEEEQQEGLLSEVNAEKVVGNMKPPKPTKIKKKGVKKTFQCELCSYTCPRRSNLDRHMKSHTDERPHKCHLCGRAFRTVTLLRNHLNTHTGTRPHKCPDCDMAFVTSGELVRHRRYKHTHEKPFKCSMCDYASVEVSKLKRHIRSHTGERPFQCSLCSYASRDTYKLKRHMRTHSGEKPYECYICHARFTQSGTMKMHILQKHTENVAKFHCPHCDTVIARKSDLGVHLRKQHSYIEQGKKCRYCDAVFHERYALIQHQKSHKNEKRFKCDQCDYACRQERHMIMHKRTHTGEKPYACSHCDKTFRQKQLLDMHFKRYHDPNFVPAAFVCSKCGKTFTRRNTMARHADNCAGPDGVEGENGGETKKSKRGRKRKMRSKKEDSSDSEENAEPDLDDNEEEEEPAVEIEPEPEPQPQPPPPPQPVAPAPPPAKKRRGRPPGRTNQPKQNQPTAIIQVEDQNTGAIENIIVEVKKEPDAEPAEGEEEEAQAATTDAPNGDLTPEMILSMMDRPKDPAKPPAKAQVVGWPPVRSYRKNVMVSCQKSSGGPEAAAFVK
# T2 sequence (Q7XVM8 whole entry, further chain): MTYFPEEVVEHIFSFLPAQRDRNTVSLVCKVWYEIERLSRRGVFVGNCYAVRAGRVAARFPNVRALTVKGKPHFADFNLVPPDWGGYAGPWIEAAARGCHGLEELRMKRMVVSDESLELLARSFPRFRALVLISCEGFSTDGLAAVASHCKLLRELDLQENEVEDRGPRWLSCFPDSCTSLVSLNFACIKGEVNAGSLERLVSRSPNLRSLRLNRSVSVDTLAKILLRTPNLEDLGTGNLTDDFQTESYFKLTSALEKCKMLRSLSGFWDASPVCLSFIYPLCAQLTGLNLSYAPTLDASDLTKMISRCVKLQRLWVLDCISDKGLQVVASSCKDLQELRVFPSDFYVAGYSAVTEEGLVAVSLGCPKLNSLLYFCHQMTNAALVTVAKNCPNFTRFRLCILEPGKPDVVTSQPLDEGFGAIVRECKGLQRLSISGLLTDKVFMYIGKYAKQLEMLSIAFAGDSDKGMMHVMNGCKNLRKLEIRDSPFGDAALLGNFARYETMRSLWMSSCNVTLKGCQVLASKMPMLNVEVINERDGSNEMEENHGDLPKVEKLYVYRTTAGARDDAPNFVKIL
# T2 sequence (Q9WTX5 whole entry partner): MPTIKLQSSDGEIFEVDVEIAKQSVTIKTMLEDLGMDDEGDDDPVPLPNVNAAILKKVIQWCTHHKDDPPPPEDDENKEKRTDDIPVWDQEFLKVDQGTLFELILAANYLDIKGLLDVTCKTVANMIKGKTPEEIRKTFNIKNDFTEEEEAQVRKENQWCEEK
# [3] = biological target: T3, FLAG-tagged YY1 and HA-tagged YY1 (Homo sapiens, UniProt P25490); experiment: Co-immunoprecipitation of FLAG-tagged and HA-tagged YY1 from nuclear extracts; assay type: binding, mouse; conditions: nuclear extract treated prior to immunoprecipitation
# T3 construct: expressed in transfected cells; host or cells: V6.5 mESCs, transient transfection, nuclear extract
# T3 sequence (P25490 whole entry): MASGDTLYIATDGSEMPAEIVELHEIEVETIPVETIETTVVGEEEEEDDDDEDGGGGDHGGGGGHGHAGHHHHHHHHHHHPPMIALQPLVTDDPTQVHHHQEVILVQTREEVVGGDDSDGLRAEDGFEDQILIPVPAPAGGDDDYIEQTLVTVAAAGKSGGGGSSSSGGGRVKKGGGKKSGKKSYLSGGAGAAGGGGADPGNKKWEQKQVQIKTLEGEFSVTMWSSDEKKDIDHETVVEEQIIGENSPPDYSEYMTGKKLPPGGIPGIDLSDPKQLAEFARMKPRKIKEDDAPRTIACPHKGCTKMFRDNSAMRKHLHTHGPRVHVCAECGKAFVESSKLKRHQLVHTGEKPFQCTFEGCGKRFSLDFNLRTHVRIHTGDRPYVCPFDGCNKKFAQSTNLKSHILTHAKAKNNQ
# T3 sequence (P25490 whole entry): as above
# Description: V6.5 mESCs were transfected with pcDNA3 FLAG YY1 and pcDNA3 […] using Lipofectamine 3000 (Life Technologies #L3000001) according to the manufacturer's instructions. Briefly, cells were split and 8 million cells were plated onto a gelatinized 15 cm plate. 7.5 μg of each plasmid was mixed with 30 μL P3000 reagent and 75 μL Lipofectamine 3000 reagent (Life Technologies #L3000001) in 1250 μL of DMEM (Life technologies #11995-073). After ˜12-16 hours media was changed.
# Cells were harvested 48 hours after transfection by washing twice with ice-cold PBS and collected by scraping in ice-cold PBS. Harvested cells were centrifuged at 1,000 rcf for 3 minutes to pellet cells. Supernatant was discarded and cell pellets were flash frozen and stored at −80° C. until ready to prepare nuclear extract. For each 15 cm plate of cells, frozen cell pellets were resuspended in 5 mL of ice-cold hypotonic lysis buffer (20 mM HEPES-KOH pH 7.5, 20% glycerol, 10 mM NaCl, 0.1% Triton X-100, 1.5 mM MgCl2, 0.5 mM DTT and protease inhibitor (Roche, 11697498001)) and incubated on ice for 10 minutes to extract nuclei. Nuclei were pelleted by centrifugation at 14,000 rcf for 10 minutes at 4° C. […] Protein concentration of extracts was quantified by BCA assay (Thermo Scientific, 23225) and protein concentration was adjusted to 400 μg/mL by addition of appropriate volume of 1:2 nuclear extraction buffer:dilution buffer. […]
# YY1 = YY1 (Homo sapiens, UniProt P25490 P25490:1-414); experiment: competition; 100 nM competitor abrogated YY1-enhanced circularization of template, 20 C
# YY1, sequence (P25490 whole entry, one chain of several): as the sequence (P25490 whole entry) above
# Description: Reactions were incubated at 20° C. for 20 minutes to allow binding of YY1 to the DNA. For each timepoint 6 µL of the reaction was withdrawn and quenched in a total volume of 9 µL with a final concentration of 30 mM EDTA, 1×NEB loading dye (NEB, B7024S), 1 ug/µL of proteinase K, and heated at 65° C. for 5 minutes. Timepoint 0 was taken and then 600 units of T4 DNA ligase (NEB M0202) was added and the reaction was carried out at 20° C. Indicated timepoints were taken and then samples were run on a 4-20% TBE gradient gel for three hours at 120 V. The gel was stained with SYBR Gold (Life Technologies S11494) and imaged with a CCD camera.
# T1 sequence (Q61164+P93830 fused): as the sequence (Q61164+P93830 fused) above
# T1 sequence (Q7XVM8 whole entry): as the sequence (Q7XVM8 whole entry, further chain) above
# T1 sequence (Q9WTX5 whole entry partner): as the sequence (Q9WTX5 whole entry partner) above
molecule,measurement,setting,value
O=C(O)Cc1c[nH]c2ccccc12 [auxin],washout time allowing recovery of CTCF protein,AID-tagged CTCF protein [1],2 days
same,CTCF protein degradation,AID-tagged CTCF protein [2],proteasome-mediated degradation
"RNase A: RNase A (Sigma, R4642) used to treat nuclear extract (protein, UniProt P61823 27-150, looked up) Ribonuclease pancreatic: KETAAAKFERQHMDSSTSAASSSNYCNQMMKSRNLTKDRCKPVNTFVHESLADVQAVCSQKNVACKNGQTNCYQSYSTMSITDCRETGSSKYPNCAYKTTQANKHIIVACEGNPYVPVHFDASV",reduction in the amount of co-immunoprecipitated YY1 partner protein,[3],~60%
competitor DNA with YY1 consensus sites (dsDNA) DNA 1: GAGCAACAACAACAACGAACCGGTTCGACCTCCCCGGCCATCTTTCGACCTCCCCGGCCATCTTTCGACCTCCCCGGCCATCTTTCGACCTCCCCGGCCATCTTTCGACCTCCCCGGCCATCTTTCGACCTCCCCGGCCATCTTTCGACCTCCCCGGCCATCTTTCGACCTCCCGTCGACAGAGGCAGCAAAAGCCAGA DNA 2: TCTGGCTTTTGCTGCCTCTGTCGACGGGAGGTCGAAAGATGGCCGGGGAGGTCGAAAGATGGCCGGGGAGGTCGAAAGATGGCCGGGGAGGTCGAAAGATGGCCGGGGAGGTCGAAAGATGGCCGGGGAGGTCGAAAGATGGCCGGGGAGGTCGAAAGATGGCCGGGGAGGTCGAACCGGTTCGTTGTTGTTGTTGCTC,binding result,YY1,binds
